Tested on: NCI-H196 complex spheroid viability
Assay: Anticancer human tumor NCI-H196 cell line growth inhibition [LSD1];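 note: spheroids exposed to agents for 7 days before readout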;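 for viability, T/C: 100% = DMSO vehicle control viability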
Details: for IC50: curve of first compound; for viability, T/C: stronger effect = lower value
Method in brief: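 Drug combinations with the LSD1 inhibitor iadademstat tested on tumor cells co-cultured as spheroids with endothelial cells and mesenchymal stem cells. Concentrations descended in half-log increments from clinical Cmax or 10 microM.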

[1] = second compound 0.1 µM, first compound 0.0316 µM
[2] = second compound 0.1 µM, first compound 0.1 µM
[3] = second compound 0.1 µM, first compound 0.316 µM
[4] = second compound 0.1 µM, first compound 1 µM
[5] = second compound 0.1 µM, first compound 3.16 µM
[6] = second compound 0.1 µM, first compound 10 µM
[7] = second compound 0.316 µM, first compound 0.0316 µM
[8] = second compound 0.316 µM, first compound 0.1 µM
[9] = second compound 0.316 µM, first compound 0.316 µM
[10] = second compound 0.316 µM, first compound 1 µM
[11] = second compound 0.316 µM, first compound 3.16 µM
[12] = second compound 0.316 µM, first compound 10 µM
[13] = second compound 1 µM, first compound 0.0316 µM
[14] = second compound 1 µM, first compound 0.1 µM
[15] = second compound 1 µM, first compound 0.316 µM
[16] = second compound 1 µM, first compound 1 µM
[17] = second compound 1 µM, first compound 3.16 µM
[18] = second compound 1 µM, first compound 10 µM
[19] = second compound 3.16 µM, first compound 0.0316 µM
[20] = second compound 3.16 µM, first compound 0.1 µM
[21] = second compound 3.16 µM, first compound 0.316 µM
[22] = second compound 3.16 µM, first compound 1 µM
[23] = second compound 3.16 µM, first compound 3.16 µM
[24] = second compound 3.16 µM, first compound 10 µM
[25] = second compound 10 µM, first compound 0.0316 µM
[26] = second compound 10 µM, first compound 0.1 µM
[27] = second compound 10 µM, first compound 0.316 µM
[28] = second compound 10 µM, first compound 1 µM
[29] = second compound 10 µM, first compound 3.16 µM
[30] = second compound 10 µM, first compound 10 µM
[31] = second compound 0.1 µM, first compound 0.00316 µM
[32] = second compound 0.1 µM, first compound 0.01 µM
[33] = second compound 0.316 µM, first compound 0.00316 µM
[34] = second compound 0.316 µM, first compound 0.01 µM
[35] = second compound 1 µM, first compound 0.00316 µM
[36] = second compound 1 µM, first compound 0.01 µM
[37] = second compound 3.16 µM, first compound 0.00316 µM
[38] = second compound 3.16 µM, first compound 0.01 µM
[39] = second compound 10 µM, first compound 0.00316 µM
[40] = second compound 10 µM, first compound 0.01 µM

| SMILES | IC50 (second compound 0.1 µM) [nM] | IC50 (second compound 0.316 µM) [nM] | IC50 (second compound 1 µM) [nM] | IC50 (second compound 3.16 µM) [nM] | IC50 (second compound 10 µM) [nM] | viability, T/C [1] [%] | viability, T/C [2] [%] | viability, T/C [3] [%] | viability, T/C [4] [%] | viability, T/C [7] [%] | viability, T/C [8] [%] | viability, T/C [9] [%] | viability, T/C [10] [%] | viability, T/C [13] [%] | viability, T/C [14] [%] | viability, T/C [15] [%] | viability, T/C [16] [%] | viability, T/C [19] [%] | viability, T/C [20] [%] | viability, T/C [21] [%] | also measured |
| --- | --- | --- | --- | --- | --- | --- | --- | --- | --- | --- | --- | --- | --- | --- | --- | --- | --- | --- | --- | --- | --- |
| CC(C)c1c(-c2ccccc2)nc2c(C#N)c[nH]n2c1=O + NC1CC1c1ccc(-c2cccc(O)c2)cc1 | > 10000 | > 10000 | > 10000 | > 10000 | > 10000 | 87.2 | 96.8 | 88.4 | 83.5 | 92.7 | 102 | 98 | 89.4 | 96.7 | 95 | 91.1 | 96.7 | 101 | 88.5 | 95.3 | viability, T/C [5]: 93.1%; viability, T/C [6]: 90.1%; viability, T/C [11]: 94.6%; viability, T/C [12]: 88.2%; viability, T/C [17]: 104%; viability, T/C [18]: 79.8%; viability, T/C [22]: 96.2%; viability, T/C [23]: 91.6%; viability, T/C [24]: 94.1%; viability, T/C [25]: 103%; viability, T/C [26]: 92.6%; viability, T/C [27]: 93.1%; viability, T/C [28]: 88.4%; viability, T/C [29]: 86.3%; viability, T/C [30]: 88% |
| CC1COCCN1c1cc(-c2ccnn2C)c2ccnc(-c3ccn[nH]3)c2n1 (stereo not given) + NC1CC1c1ccc(-c2cccc(O)c2)cc1 | 368 | 176 | 96.1 | 212 | 168 | 72.5 | 57.1 | 49.8 | 43.2 | 71.4 | 55.4 | 45.4 | 38.4 | 65.5 | 51 | 51.4 | 45.9 | 70.9 | 56.1 | 47.7 | viability, T/C [31]: 79.2%; viability, T/C [32]: 74.4%; viability, T/C [33]: 72.4%; viability, T/C [34]: 78.7%; viability, T/C [35]: 85.6%; viability, T/C [36]: 87.6%; viability, T/C [37]: 86.6%; viability, T/C [38]: 83.5%; viability, T/C [22]: 41.5%; viability, T/C [39]: 89.4%; viability, T/C [40]: 81.2%; viability, T/C [25]: 79.3%; viability, T/C [26]: 55.2%; viability, T/C [27]: 43.5%; viability, T/C [28]: 40.9% |
| COc1ccc([C@@H](O)c2cc(-c3ncnc4cc(N5CCOCC5)ccc34)c(F)cc2Cl)nn1 + NC1CC1c1ccc(-c2cccc(O)c2)cc1 | > 10000 | > 10000 | > 10000 | > 10000 | 6480 | 106 | 98.6 | 79.1 | 68.4 | 92 | 90 | 82.7 | 71 | 102 | 94.7 | 90 | 69.4 | 94.9 | 105 | 90.8 | viability, T/C [5]: 64.2%; viability, T/C [6]: 52%; viability, T/C [11]: 60.7%; viability, T/C [12]: 50%; viability, T/C [17]: 62.2%; viability, T/C [18]: 50.1%; viability, T/C [22]: 68.2%; viability, T/C [23]: 59.9%; viability, T/C [24]: 48.2%; viability, T/C [25]: 103%; viability, T/C [26]: 100%; viability, T/C [27]: 86.2%; viability, T/C [28]: 72.8%; viability, T/C [29]: 59.2%; viability, T/C [30]: 44.7% |
| Nc1ncn(C2CC(O)C(CO)O2)c(=O)n1 (stereo not given) + NC1CCC(NC2CC2c2ccccc2)CC1 | > 1000 | > 1000 | > 1000 | > 1000 | > 1000 | 96.1 | 92.5 | 93.3 | 93 | 114 | 96.7 | 96.9 | 99.3 | 94.9 | 88.5 | 93.8 | 101 | 99.2 | 89.6 | 87.1 | viability, T/C [31]: 94.3%; viability, T/C [32]: 96.1%; viability, T/C [33]: 91%; viability, T/C [34]: 97.4%; viability, T/C [35]: 87.8%; viability, T/C [36]: 94.9%; viability, T/C [37]: 94.5%; viability, T/C [38]: 95.8%; viability, T/C [22]: 91.2%; viability, T/C [39]: 91.2%; viability, T/C [40]: 94.8%; viability, T/C [25]: 91.2%; viability, T/C [26]: 87.5%; viability, T/C [27]: 92.9%; viability, T/C [28]: 91.3% |
